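All cell lines were grown in 96-well plates and treated with compound for 48 hours. GI50: concentration for 50% inhibition of growth. TGI is the concentration that stops growth completely.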
Legend:
Assay in all cases: NCI-60 cell line screen, 48 h
[1] = system: NCI-H460 lung
[2] = system: HS 578T breast
[3] = system: SN12C renal
[4] = system: A498 renal
[5] = system: U251 CNS
[6] = system: MALME-3M melanoma
[7] = system: BT-549 breast
[8] = system: K-562 leukemia
[9] = system: NCI/ADR-RES ovarian
[10] = system: OVCAR-4 ovarian
[11] = system: HCT-15 colon
[12] = system: SK-MEL-5 melanoma
[13] = system: DU-145 prostate
[14] = system: SR leukemia
[15] = system: 786-0 renal
[16] = system: KM12 colon
[17] = system: LOX IMVI melanoma
[18] = system: CCRF-CEM leukemia
[19] = system: NCI-H226 lung
[20] = system: HCC-2998 colon
[21] = system: PC-3 prostate
[22] = system: OVCAR-8 ovarian
[23] = system: SF-539 CNS
[24] = system: A549 NSCLC
[25] = system: MDA-MB-435
[26] = system: SNB-75 CNS
[27] = system: SW-620 colon
[28] = system: SF-268 CNS
[29] = system: TK-10 renal
[30] = system: SK-MEL-2 melanoma
[31] = system: CAKI-1 renal
[32] = system: RPMI-8226 leukemia
[33] = system: SNB-19 CNS
[34] = system: HT29 colon
[35] = system: MOLT-4 leukemia
[36] = system: IGROV1 ovarian
[37] = system: EKVX NSCLC
[38] = system: T-47D breast
[39] = system: COLO 205 colon
[40] = system: MDA-MB-231 breast
[41] = system: UACC-257 melanoma
[42] = system: RXF 393 renal
[43] = system: SF-295 CNS
[44] = system: HCT-116 colon
[45] = system: M14 melanoma
[46] = system: UACC-62 melanoma
[47] = system: MCF7 breast
[48] = system: UO-31 renal
[49] = system: SK-MEL-28 melanoma
[50] = system: ACHN renal
[51] = system: NCI-H23 lung
[52] = system: SK-OV-3 ovarian
[53] = system: OVCAR-3 ovarian
[54] = system: HL-60(TB) leukemia
[55] = system: HOP-62 NSCLC
[56] = system: HOP-92 NSCLC
[57] = system: OVCAR-5 ovarian
[58] = system: NCI-H522 lung

Compound O=[N+]([O-])c1cc(C(F)(F)F)ccc1Sc1ccc(C(F)(F)F)cc1[N+](=O)[O-] has a GI50 [1] of 19 µM, a TGI [1] greater than 100 µM and a GI50 [2] of 18.6 µM. The TGI [2] was greater than 100 µM, the GI50 [3] was 7.7 µM and the TGI [3] was greater than 100 µM. For the same compound, the GI50 [4] was 7.22 µM, the TGI [4] was 30.6 µM and the GI50 [5] was 12.9 µM. The TGI [5] was greater than 100 µM, the GI50 [6] was 17.5 µM and the TGI [6] was greater than 100 µM. The GI50 [7] was 7.52 µM, the TGI [7] was greater than 100 µM and the GI50 [8] was 3.49 µM. The TGI [8] was greater than 100 µM, the GI50 [9] was 8.19 µM and the TGI [9] was greater than 100 µM. For the same compound, the GI50 [10] was 4.05 µM, the TGI [10] was greater than 100 µM and the GI50 [11] was 6.84 µM. For the same compound, the TGI [11] was greater than 100 µM, the GI50 [12] was 16.7 µM and the TGI [12] was greater than 100 µM. The GI50 [13] was 10.6 µM, the TGI [13] was greater than 100 µM and the GI50 [14] was 3.65 µM. The TGI [14] was greater than 100 µM, the GI50 [15] was greater than 100 µM and the TGI [15] was greater than 100 µM. It also gave a GI50 [16] of 5.24 µM, a TGI [16] greater than 100 µM and a GI50 [17] of 3.37 µM. The TGI [17] was greater than 100 µM, the GI50 [18] was 3.47 µM and the TGI [18] was greater than 100 µM. The GI50 [19] was greater than 100 µM, the TGI [19] was greater than 100 µM and the GI50 [20] was 19.7 µM. For the same compound, the TGI [20] was greater than 100 µM, the GI50 [21] was 61.2 µM and the TGI [21] was greater than 100 µM. For the same compound, the GI50 [22] was 6.1 µM, the TGI [22] was greater than 100 µM and the GI50 [23] was 9.15 µM. The TGI [23] was greater than 100 µM, the GI50 [24] was 24.9 µM and the TGI [24] was greater than 100 µM. The GI50 [25] was 3.04 µM, the TGI [25] was greater than 100 µM and the GI50 [26] was greater than 100 µM. For the same compound, the TGI [26] was greater than 100 µM, the GI50 [27] was 3.31 µM and the TGI [27] was greater than 100 µM. For the same compound, the GI50 [28] was 7.07 µM, the TGI [28] was greater than 100 µM and the GI50 [29] was 28.3 µM. For the same compound, the TGI [29] was greater than 100 µM, the GI50 [30] was 3.32 µM and the TGI [30] was 9.96 µM. For the same compound, the GI50 [31] was 5.67 µM, the TGI [31] was greater than 100 µM and the GI50 [32] was 6.69 µM. For the same compound, the TGI [32] was greater than 100 µM, the GI50 [33] was 70.2 µM and the TGI [33] was greater than 100 µM. It also gave a GI50 [34] of 3.28 µM, a TGI [34] of 9.79 µM and a GI50 [35] of 3.92 µM. The TGI [35] was greater than 100 µM, the GI50 [36] was 17.1 µM and the TGI [36] was greater than 100 µM. It also gave a GI50 [37] of 41.7 µM, a TGI [37] greater than 100 µM and a GI50 [38] of 29.2 µM. For the same compound, the TGI [38] was greater than 100 µM, the GI50 [39] was 41.8 µM and the TGI [39] was greater than 100 µM. For the same compound, the GI50 [40] was 5.1 µM, the TGI [40] was greater than 100 µM and the GI50 [41] was 6.65 µM. For the same compound, the TGI [41] was greater than 100 µM, the GI50 [42] was 11.4 µM and the TGI [42] was greater than 100 µM. The GI50 [43] was 31.4 µM, the TGI [43] was greater than 100 µM and the GI50 [44] was 3.68 µM. For the same compound, the TGI [44] was greater than 100 µM, the GI50 [45] was 7.23 µM and the TGI [45] was greater than 100 µM. It also gave a GI50 [46] of 5.27 µM, a TGI [46] greater than 100 µM and a GI50 [47] of 9.39 µM. The TGI [47] was greater than 100 µM, the GI50 [48] was 34.8 µM and the TGI [48] was greater than 100 µM. It also gave a GI50 [49] of 13.2 µM, a TGI [49] greater than 100 µM and a GI50 [50] of 49.4 µM. For the same compound, the TGI [50] was greater than 100 µM, the GI50 [51] was 4.62 µM and the TGI [51] was greater than 100 µM. It also gave a GI50 [52] of 7.65 µM, a TGI [52] greater than 100 µM and a GI50 [53] of 5.11 µM. The TGI [53] was 54.9 µM, the GI50 [54] was 3.32 µM and the TGI [54] was greater than 100 µM. It also gave a GI50 [55] greater than 100 µM, a TGI [55] greater than 100 µM and a GI50 [56] of 7.96 µM. It also gave a TGI [56] greater than 100 µM, a GI50 [57] of 43 µM and a TGI [57] greater than 100 µM. The GI50 [58] was 7.14 µM and the TGI [58] was 82.4 µM.
